Among the data in patent US20250188110A1, “SPECIFIC SMALL MOLECULE INHIBITORS THAT BLOCK KMT9 METHYLTRANSFERASE ACTIVITY AND FUNCTION” (ALBERT-LUDWIGS-UNIVERSITÄT FREIBURG, priority 2021, published 2025) are IC50, Kd and ΔTm values, retold here.

Like-named read-outs stand apart in the source and are kept apart here.

The target in assay [1] is T1, KMT9 (Homo sapiens, UniProt Q9Y5N5).
T1 sequence (Q9Y5N5 1-214): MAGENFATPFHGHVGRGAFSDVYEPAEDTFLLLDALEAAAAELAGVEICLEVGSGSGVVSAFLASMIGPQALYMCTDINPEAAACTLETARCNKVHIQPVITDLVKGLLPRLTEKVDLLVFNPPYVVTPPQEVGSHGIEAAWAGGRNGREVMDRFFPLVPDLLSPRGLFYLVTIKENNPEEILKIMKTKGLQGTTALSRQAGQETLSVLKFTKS
T1 sequence (Q9UI30 1-120 isoform Q9UI30-2 partner): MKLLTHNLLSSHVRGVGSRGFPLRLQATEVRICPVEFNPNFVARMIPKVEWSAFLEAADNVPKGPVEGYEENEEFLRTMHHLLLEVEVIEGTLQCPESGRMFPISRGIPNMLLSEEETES
The assay is described as follows: KMT9 methyltransferase inhibition assay, MTaseGlo luminescence (from entry 155). To be noted: 100 nM KMT9, 5 μM ETF1, 1 μM SAM. Format: biochemical. The procedure, abridged:
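KMT9 (100 nM final) pre-incubated with inhibitor for 15 min at room temperature, then reacted with 5 μM ETF1 and 1 μM SAM for 2 h at 30° C. at 2% DMSO final. MTaseGlo luminescence read after 60 min detection; IC50 reported in four potency bins.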

In assay [2] the target is T1, KMT9. Kind of assay: Microscale thermophoresis (MST) KMT9 binding. To be noted: His-tag labelled KMT9 20 nM. The procedure, abridged: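 Kd from microscale thermophoresis: compound series against 20 nM His-KMT9 labelled via RED-Tris-NTA, buffer 25 mM HEPES (pH 7.5)/100 mM NaCl/1 mM DTT/0.05% Tween, 40% MST power, 100% LED. Reported as classes: A ≤10 nM, B >10–100 nM, C >100–1000 nM, D >1000 nM.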

Assay [3] addresses T1, KMT9. Kind of assay: KMT9 thermal shift assay (SyproOrange). Format: binding. The conditions noted are these: 2 μM KMT9. The gist of the method: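 ΔTm versus DMSO-only control is reported in bins (>20 K, 15–20 K, 10–15 K, ≤10 K), using Tm from Boltzmann sigmoidal fits of SyproOrange melt curves. KMT9 with compound in pH 8.5 BTP buffer containing MgCl2 and DTT was preincubated at 25° C, then ramped 1° C per 15 s up to 95° C.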

Setting [4] is: IC50 class, MTaseGlo procedure (entries from 155 on), read-out: Inhibition.
Setting [5] is: ΔTm class, 500 uM compound, read-out: Thermal shift.
[6] abbreviates: MTaseGlo procedure (entries from 155), read-out: Inhibition (IC50).
Where [7] appears, read: 500 µM compound, read-out: Thermal shift (ΔTm).

On to `CN1CCC([C@H]2C[C@@H](n3cc(-c4nc(Cc5ccccc5)cs4)c4c(N)nc(Cl)nc43)[C@H](O)[C@@H]2O)CC1` [Compound 505, (1R,2S,3R,5R)-3-(4-amino-5-(4-benzylthiazol-2-yl)-2-chloro-7H-pyrrolo[2,3-d]pyrimidin-7-yl)-5-(1-methylpiperidin-4-yl)cyclopentane-1,2-diol], for which the IC50 on KMT9 [1] (setting [4]) was 0.1 to 1 µM. Besides, the Kd on KMT9 [2] (Kd class, read-out: MST) is no more than 0.01 µM. Besides, the ΔTm at 500 µM on KMT9 [3] (setting [5]) is greater than 20 °C.
On the same counts, the results for `O[C@@H]1[C@@H](CNCCCNCCc2ccc(C(F)(F)F)cc2)C[C@@H](n2cc(-c3cc(Cc4ccccc4)cs3)c3cncnc32)[C@@H]1O` [Compound 619, (1R,2S,3R,5R)-3-(5-(4-Benzylthiophen-2-yl)-7H-pyrrolo[2,3-d]pyrimidin-7-yl)-5-(((3-((4-(trifluoromethyl)phenethyl)amino)propyl)amino)methyl)cyclopentane-1,2-diol] are greater than 10 µM, greater than 1 µM and no more than 10 °C.
Take `CC(=O)CN1CCC([C@H]2C[C@@H](n3cc(-c4nc(Cc5ccccc5)cs4)c4c(N)nc(Cl)nc43)[C@H](O)[C@@H]2O)CC1` [Compound 510, 1-{4-[(1R,2R,3S,4R)-4-[4-amino-5-(4-benzyl-1,3-thiazol-2-yl)-2-chloropyrrolo[2,3-d]pyrimidin-7-yl]-2,3-dihydroxycyclopentyl]piperidin-1-yl}propan-2-one]: the IC50 at KMT9 [1] (setting [6]) lay in the range of 0.1 to 1 µM. Besides, the Kd on KMT9 [2] (read-out: MST (Kd)) lay within 0.01 to 0.1 µM. Besides, the ΔTm at 500 µM at KMT9 [3] (setting [7]) was in the range of 15 to 20 °C.
On the same counts, the results for `COc1cc(OC)cc([C@H]2C[C@@H](n3cc(Br)c4c(N)nc(Cl)nc43)[C@H](O)[C@@H]2O)c1` [Compound 677, (1R,2S,3R,5R)-3-{4-amino-5-bromo-2-chloropyrrolo[2,3-d]pyrimidin-7-yl}-5-(3,5-dimethoxyphenyl)cyclopentane-1,2-diol] are 1 to 10 µM, 0.01 to 0.1 µM and 10 to 15 °C.
Turning to `Nc1nc(Cl)nc2c1c(-c1nc(Cc3ccccc3)cs1)cn2[C@@H]1C[C@H](C2CCN(CC3CC3)CC2)[C@@H](O)[C@H]1O` [Compound 507, (1R,2S,3R,5R)-3-[4-amino-5-(4-benzyl-1,3-thiazol-2-yl)-2-chloropyrrolo[2,3-d]pyrimidin-7-yl]-5-[1-(cyclopropylmethyl)piperidin-4-yl]cyclopentane-1,2-diol], at KMT9 [1] (setting [4]), the IC50 was 0.1 to 1 µM. Moreover, the Kd on KMT9 [2] (Kd class, read-out: MST) was no more than 0.01 µM. For the same compound, on KMT9 [3] (setting [5]), the ΔTm at 500 µM is greater than 20 °C.
With `Nc1nc(Cl)nc2c1c(-c1nc(Cc3ccccc3)cs1)cn2[C@@H]1C[C@H](C2CCN(Cc3cccs3)CC2)[C@@H](O)[C@H]1O` [Compound 526, (1R,2S,3R,5R)-3-(4-amino-5-(4-benzylthiazol-2-yl)-2-chloro-7H-pyrrolo[2,3-d]pyrimidin-7-yl)-5-(1-(thiophen-2-ylmethyl)piperidin-4-yl)cyclopentane-1,2-diol], the IC50 at KMT9 [1] (setting [6]) fell in the range of 0.1 to 1 µM. The Kd on KMT9 [2] (read-out: MST (Kd)) was no more than 0.01 µM. In addition, at KMT9 [3] (setting [7]), the ΔTm at 500 µM was in the range of 15 to 20 °C.
On the same counts, the results for `CN(CCCNCCc1ccc(F)cc1)C[C@H]1C[C@@H](n2cc(-c3ccccc3)c3c(N)nc(Cl)nc32)[C@H](O)[C@@H]1O` [Compound 575, (1R,2S,3R,5R)-3-(4-amino-2-chloro-5-phenyl-7H-pyrrolo[2,3-d]pyrimidin-7-yl)-5-(((3-((4-fluorophenethyl)amino)propyl)(methyl)amino)methyl)cyclopentane-1,2-diol] are 0.1 to 1 µM, no more than 0.01 µM and 15 to 20 °C.
In the case of `COc1cccc([C@H]2C[C@@H](n3cc(Br)c4c(N)nc(Cl)nc43)[C@H](O)[C@@H]2O)c1` [Compound 669, (1R,2S,3R,5R)-3-(4-amino-5-bromo-2-chloro-7H-pyrrolo[2,3-d]pyrimidin-7-yl)-5-(3-methoxyphenyl)cyclopentane-1,2-diol], the IC50 on KMT9 [1] (setting [6]) fell in the range of 1 to 10 µM. For the same compound, the Kd on KMT9 [2] (read-out: MST (Kd)) lay within 0.01 to 0.1 µM. Moreover, the ΔTm at 500 µM at KMT9 [3] (setting [7]) was 10 to 15 °C.
Regarding `CN(CCCNCCc1ccc(F)cc1)C[C@H]1C[C@@H](n2cc(-c3ccn(C)n3)c3cnc(Cl)nc32)[C@H](O)[C@@H]1O` [Compound 644, (1R,2S,3R,5R)-3-[2-Chloro-5-(1-methylpyrazol-3-yl)pyrrolo[2,3-d]pyrimidin-7-yl]-5-{[(3-{[2-(4-fluorophenyl)ethyl]amino}propyl)(methyl)amino]methyl}cyclopentane-1,2-diol], the IC50 on KMT9 [1] (setting [4]) is greater than 10 µM. Further, on KMT9 [2] (Kd class, read-out: MST), the Kd was greater than 1 µM. Further, on KMT9 [3] (setting [5]), the ΔTm at 500 µM was no more than 10 °C.
Take `CNc1nc(Cl)nc2c1ccn2[C@@H]1C[C@H](c2cn[nH]c2)[C@@H](O)[C@H]1O` [Compound 583, (1R,2S,3R,5R)-3-[2-chloro-4-(methylamino)pyrrolo[2,3-d]pyrimidin-7-yl]-5-(1H-pyrazol-4-yl)cyclopentane-1,2-diol]: on KMT9 [1] (setting [6]), the IC50 is greater than 10 µM. At KMT9 [2] (read-out: MST (Kd)), the Kd was greater than 1 µM. On KMT9 [3] (setting [7]), the ΔTm at 500 µM was no more than 10 °C.
Regarding `Nc1nc(Cl)nc2c1c(-c1nc(Cc3ccccc3)cs1)cn2[C@@H]1C[C@H](C2CCN(Cc3ccco3)CC2)[C@@H](O)[C@H]1O` [Compound 525, (1R,2S,3R,5R)-3-(4-amino-5-(4-benzylthiazol-2-yl)-2-chloro-7H-pyrrolo[2,3-d]pyrimidin-7-yl)-5-(1-(furan-2-ylmethyl)piperidin-4-yl)cyclopentane-1,2-diol], the IC50 on KMT9 [1] (setting [6]) fell in the range of 1 to 10 µM. In addition, on KMT9 [2] (read-out: MST (Kd)), the Kd was no more than 0.01 µM. At KMT9 [3] (setting [7]), the ΔTm at 500 µM was in the range of 15 to 20 °C.
As to `Nc1ccc([C@H]2C[C@@H](n3ccc4c(N)ncnc43)[C@H](O)[C@@H]2O)cc1` [Compound 409, (1r,2s,3r,5r)-3-(4-amino-7H-pyrrolo[2,3-d]pyrimidin-7-yl)-5-(4-aminophenyl) cyclopentane-1,2-diol], the IC50 on KMT9 [1] (setting [4]) was greater than 10 µM. Besides, the Kd on KMT9 [2] (Kd class, read-out: MST) is greater than 1 µM. Further, the ΔTm at 500 µM at KMT9 [3] (setting [5]) was no more than 10 °C.
Consider `Nc1nc(Cl)nc2c1c(Br)cn2[C@@H]1C[C@H](c2cccc(CN3CCC3)c2)[C@@H](O)[C@H]1O` [Compound 673, (1R,2S,3R,5R)-3-(4-amino-5-bromo-2-chloro-7H-pyrrolo[2,3-d]pyrimidin-7-yl)-5-(3-(azetidin-1-ylmethyl)phenyl)cyclopentane-1,2-diol], for which the IC50 at KMT9 [1] (setting [6]) was in the range of 0.1 to 1 µM. In addition, the Kd on KMT9 [2] (read-out: MST (Kd)) was no more than 0.01 µM. Further, on KMT9 [3] (setting [7]), the ΔTm at 500 µM was 15 to 20 °C.
As to `Nc1ncnc2c1c(-c1nc(Cc3ccccc3)cs1)cn2[C@@H]1C[C@H]([C@@H]2CCNC2)[C@@H](O)[C@H]1O` [Compound 589S, (1R,2S,3R,5R)-3-[4-Amino-5-(4-benzyl-1,3-thiazol-2-yl)pyrrolo[2,3-d]pyrimidin-7-yl]-5-[(3S)-pyrrolidin-3-yl]cyclopentane-1,2-diol], the IC50 at KMT9 [1] (setting [4]) was in the range of 1 to 10 µM. Also, the Kd at KMT9 [2] (Kd class, read-out: MST) was 0.1 to 1 µM. In addition, at KMT9 [3] (setting [5]), the ΔTm at 500 µM fell in the range of 10 to 15 °C.
As for `Nc1nc(Cl)nc2c1ccn2[C@@H]1C[C@H](c2cnn(CCc3ccccc3)c2)[C@@H](O)[C@H]1O` [Compound 584, (1R,2S,3R,5R)-3-(4-Amino-2-chloro-7H-pyrrolo[2,3-d]pyrimidin-7-yl)-5-(1-phenethyl-1H-pyrazol-4-yl)cyclopentane-1,2-diol], the IC50 at KMT9 [1] (setting [6]) was greater than 10 µM. Besides, the Kd at KMT9 [2] (read-out: MST (Kd)) was greater than 1 µM. Moreover, at KMT9 [3] (setting [7]), the ΔTm at 500 µM was no more than 10 °C.
For `Nc1nc(Cl)nc2c1c(-c1ccn(S(=O)(=O)c3ccccc3)n1)cn2[C@@H]1C[C@H](C2CCN(CCc3ccccc3)CC2)[C@@H](O)[C@H]1O` [Compound 519, (1R,2S,3R,5R)-3-{4-amino-5-[1-(benzenesulfonyl)pyrazol-3-yl]-2-chloropyrrolo[2,3-d]pyrimidin-7-yl}-5-[1-(2-phenylethyl)piperidin-4-yl]cyclopentane-1,2-diol] the same measures were 0.1 to 1 µM, no more than 0.01 µM and greater than 20 °C.
`CN1CCC[C@@H]([C@H]2C[C@@H](n3cc(-c4nc(Cc5ccccc5)cs4)c4c(N)nc(Cl)nc43)[C@H](O)[C@@H]2O)C1` [Compound 597S, (1R,2S,3R,5R)-3-(4-amino-5-(4-benzylthiazol-2-yl)-2-chloro-7H-pyrrolo[2,3-d]pyrimidin-7-yl)-5-((S)-1-methylpiperidin-3-yl)cyclopentane-1,2-diol]: the IC50 on KMT9 [1] (setting [6]) fell in the range of 0.1 to 1 µM. Further, the Kd at KMT9 [2] (read-out: MST (Kd)) is no more than 0.01 µM. Further, the ΔTm at 500 µM at KMT9 [3] (setting [7]) is 15 to 20 °C.
With `Nc1ncnc2c1c(Br)cn2[C@@H]1C[C@H](c2ccccc2)[C@@H](O)[C@H]1O` [Compound 386, (1R,2S,3R,5R)-3-(4-amino-5-bromo-7H-pyrrolo[2,3-a]pyrimidin-7-yl)-5-phenylcyclopentane-1,2-diol], the IC50 at KMT9 [1] (setting [4]) is greater than 10 µM. Besides, the Kd at KMT9 [2] (Kd class, read-out: MST) is greater than 1 µM. In addition, the ΔTm at 500 µM at KMT9 [3] (setting [5]) was no more than 10 °C.
